Reference: US20260297081A1, “COMPOUNDS AND METHODS OF TREATING CANCERS” (Cullgen Inc., priority 2023, published 2026)

System: Calu-1 cells
Assay: Anti-proliferation (viability) of NSCLC Calu-1 cells, 3 days (Table 7, FIG. 2B)
Type: cell-based
Settings: Homo sapiens, 72 h; Calu-1 cells, 3 days, 10-point serial dilution; read-out: GI IC50 in Calu-1
Description: To evaluate anti-proliferation activities of heterobifunctional compounds, NSCLC Calu-1 or ER+ breast cancer T47D cells were treated with selected heterobifunctional compounds following a 10-point serial dilution for 3 or 6 days, respectively.
To verify that heterobifunctional compound-mediated degradation is dependent on the binding to CDK4-cyclin D complex, a negative control compound, CPD-143, which is derived from active heterobifunctional compound CPD-10 was designed. CPD-143 bears the same DDB1 ligand and linker as CPD-10 but with a modified warhead to impair the binding of the control compound to CDK4.

Compound	IC50
[2H]C([2H])([2H])Nc1ccc(C(=O)Nc2ccc(N(C)C)nn2)c(N[C@H]2CC[C@H](C(=O)N3CCN(Cc4ccc(Nc5ncc6c(C)c(C(C)=O)c(=O)n(C7CCCC7)c6n5)nc4)CC3)CC2)n1 [CPD-495, 2-((4-(4-((6-((6-acetyl-8-cyclopentyl-5-methyl-7-oxo-7,8-dihydropyrido[2,3-d]pyrimidin-2-yl)amino)pyridin-3-yl)methyl)piperazine-1-carbonyl)cyclohexyl)amino)-N-(6-(dimethylamino)pyridazin-3-yl)-6-((methyl-d3)amino)nicotinamide]	≥ 50 nM
CC(=O)c1c(C)c2cnc(Nc3ccc(N4CCC5(CCN(CC(=O)NC67CC(Nc8nc(NC(C)C)ccc8C(=O)Nc8ccc(N(C)C)nn8)(C6)C7)C5)C4)cn3)nc2n(C2CCCC2)c1=O (stereo not drawn) [CPD-496, 2-((3-(2-(7-(6-((6-acetyl-8-cyclopentyl-5-methyl-7-oxo-7,8-dihydropyrido[2,3-d]pyrimidin-2-yl)amino)pyridin-3-yl)-2,7-diazaspiro[4.4]nonan-2-yl)acetamido)bicyclo[1.1.1]pentan-1-yl)amino)-N-(6-(dimethylamino)pyridazin-3-yl)-6-(isopropylamino)nicotinamide]	≤ 10 nM
CC(=O)c1c(C)c2cnc(Nc3ccc(CN4CC5(C4)CN(C(=O)CN4CC6(CC(Nc7nc(NC(C)C)ccc7C(=O)Nc7ccc(N(C)C)nn7)C6)C4)C5)cn3)nc2n(C2CCCC2)c1=O [CPD-497, 2-((2-(2-(6-((6-((6-acetyl-8-cyclopentyl-5-methyl-7-oxo-7,8-dihydropyrido[2,3-d]pyrimidin-2-yl)amino)pyridin-3-yl)methyl)-2,6-diazaspiro[3.3]heptan-2-yl)-2-oxoethyl)-2-azaspiro[3.3]heptan-6-yl)amino)-N-(6-(dimethylamino)pyridazin-3-yl)-6-(isopropylamino) nicotinamide]	≥ 50 nM
CC(=O)c1c(C)c2cnc(Nc3ccc(CN4CC5(C4)CN(C(=O)CN4CCC(Nc6nc(NC(C)C)ccc6C(=O)Nc6ccc(N(C)C)nn6)CC4)C5)cn3)nc2n(C2CCCC2)c1=O [CPD-498, 2-((1-(2-(6-((6-((6-acetyl-8-cyclopentyl-5-methyl-7-oxo-7,8-dihydropyrido[2,3-d]pyrimidin-2-yl)amino)pyridin-3-yl)methyl)-2,6-diazaspiro[3.3]heptan-2-yl)-2-oxoethyl)piperidin-4-yl)amino)-N-(6-(dimethylamino)pyridazin-3-yl)-6-(isopropylamino)nicotinamide]	≥ 50 nM
CC(=O)c1c(C)c2cnc(Nc3ccc(CN4CCN(CC(=O)NC56CC(Nc7nc(NC(C)C)ccc7C(=O)Nc7ccc(N(C)C)nn7)(C5)C6)CC4)cn3)nc2n(C2CCCC2)c1=O [CPD-502, 2-((3-(2-(4-((6-((6-acetyl-8-cyclopentyl-5-methyl-7-oxo-7,8-dihydropyrido[2,3-d]pyrimidin-2-yl)amino)pyridin-3-yl)methyl)piperazin-1-yl)acetamido)bicyclo[1.1.1]pentan-1-yl)amino)-N-(6-(dimethylamino)pyridazin-3-yl)-6-(isopropylamino)nicotinamide]	10 to 50 nM
[2H]C([2H])([2H])Nc1ccc(C(=O)Nc2ccc(N(C)C)nn2)c(NC2CC3(C2)CN(CC(=O)N2CCC4(CCN(Cc5ccc(Nc6ncc7c(C)c(C(C)=O)c(=O)n(C8CCCC8)c7n6)nc5)C4)C2)C3)n1 (stereo not drawn) [CPD-507, 2-((2-(2-(7-((6-((6-acetyl-8-cyclopentyl-5-methyl-7-oxo-7,8-dihydropyrido[2,3-d]pyrimidin-2-yl)amino)pyridin-3-yl)methyl)-2,7-diazaspiro[4.4]nonan-2-yl)-2-oxoethyl)-2-azaspiro[3.3]heptan-6-yl)amino)-N-(6-(dimethylamino)pyridazin-3-yl)-6-((methyl-d3)amino)nicotinamide]	≥ 50 nM
CC(=O)c1c(C)c2cnc(Nc3ccc(CN4CC5(CN(CC(=O)N6CC7(CC(Nc8nc(NC(C)C)ccc8C(=O)Nc8ccc(N(C)C)nn8)C7)C6)C5)C4)cn3)nc2n(C2CCCC2)c1=O [CPD-508, 2-((2-(2-(6-((6-((6-acetyl-8-cyclopentyl-5-methyl-7-oxo-7,8-dihydropyrido[2,3-d]pyrimidin-2-yl)amino)pyridin-3-yl)methyl)-2,6-diazaspiro[3.3]heptan-2-yl)acetyl)-2-azaspiro[3.3]heptan-6-yl)amino)-N-(6-(dimethylamino)pyridazin-3-yl)-6-(isopropylamino)nicotinamide]	≥ 50 nM
CC(=O)c1c(C)c2cnc(Nc3ccc(CN4CC5(CN(CC(=O)N6CCC(Nc7nc(NC(C)C)ccc7C(=O)Nc7ccc(N(C)C)nn7)CC6)C5)C4)cn3)nc2n(C2CCCC2)c1=O [CPD-509, 2-((1-(2-(6-((6-((6-acetyl-8-cyclopentyl-5-methyl-7-oxo-7,8-dihydropyrido[2,3-d]pyrimidin-2-yl)amino)pyridin-3-yl)methyl)-2,6-diazaspiro[3.3]heptan-2-yl)acetyl)piperidin-4-yl)amino)-N-(6-(dimethylamino)pyridazin-3-yl)-6-(isopropylamino)nicotinamide]	≥ 50 nM

The remaining lines, values ahead:

IC50	Compound
≥ 50 nM	[2H]C([2H])([2H])Nc1ccc(C(=O)Nc2ccc(N(C)C)nn2)c(NC2CC(NC(=O)N3CCC(N4CCN(c5ccc(Nc6ncc7c(C)c(C(C)=O)c(=O)n(C8CCCC8)c7n6)nc5)CC4)C3)C2)n1 (stereo not drawn) [CPD-494, 2-((3-(3-(4-(6-((6-acetyl-8-cyclopentyl-5-methyl-7-oxo-7,8-dihydropyrido[2,3-d]pyrimidin-2-yl)amino)pyridin-3-yl)piperazin-1-yl)pyrrolidine-1-carboxamido)cyclobutyl)amino)-N-(6-(dimethylamino)pyridazin-3-yl)-6-((methyl-d3)amino)nicotinamide]
≤ 10 nM	COc1ccc(NC(=O)c2ccc(NC(C)C)nc2N[C@H]2CC[C@H](C(=O)N3CCC(N4CCN(c5ccc(Nc6ncc7c(C)c(C(C)=O)c(=O)n(C8CCCC8)c7n6)nc5)CC4)C3)CC2)nn1 (stereo partly drawn) [CPD-500, 2-((trans-4-(3-(4-(6-((6-acetyl-8-cyclopentyl-5-methyl-7-oxo-7,8-dihydropyrido[2,3-d]pyrimidin-2-yl)amino)pyridin-3-yl)piperazin-1-yl)pyrrolidine-1-carbonyl)cyclohexyl)amino)-6-(isopropylamino)-N-(6-methoxypyridazin-3-yl)nicotinamide]
≥ 50 nM	CC(=O)c1c(C)c2cnc(Nc3ccc(CN4CCN(C5CCN(C(=O)C6CC(Nc7nc(NC(C)C)ccc7C(=O)Nc7ccc(N(C)C)nn7)C6)C5)CC4)cn3)nc2n(C2CCCC2)c1=O (stereo not drawn) [CPD-510, 2-((3-(3-(4-((6-((6-acetyl-8-cyclopentyl-5-methyl-7-oxo-7,8-dihydropyrido[2,3-d]pyrimidin-2-yl)amino)pyridin-3-yl)methyl)piperazin-1-yl)pyrrolidine-1-carbonyl)cyclobutyl)amino)-N-(6-(dimethylamino)pyridazin-3-yl)-6-(isopropylamino)nicotinamide]
≥ 50 nM	CC(=O)c1c(C)c2cnc(Nc3ccc(CN4CCN(C5CCN(C(=O)C6CCC(Nc7nc(NC(C)C)ccc7C(=O)Nc7ccc(N(C)C)nn7)C6)C5)CC4)cn3)nc2n(C2CCCC2)c1=O (stereo not drawn) [CPD-511, 2-((3-(3-(4-((6-((6-acetyl-8-cyclopentyl-5-methyl-7-oxo-7,8-dihydropyrido[2,3-d]pyrimidin-2-yl)amino)pyridin-3-yl)methyl)piperazin-1-yl)pyrrolidine-1-carbonyl)cyclopentyl)amino)-N-(6-(dimethylamino)pyridazin-3-yl)-6-(isopropylamino)nicotinamide]
